Legend:
[1] = (§1) Oral bioavailability in Sprague-Dawley rat at 10 mg/kg; type: ADME, organism-based; conditions: Sprague-Dawley, in vivo
[2] = (§2) AUC in Sprague-Dawley rat at 10 mg/kg, po; type: ADME, organism-based, Plasma; set-up: dose 10 mg/kg, route oral; conditions: Sprague-Dawley, plasma
[3] = Cmax in C57BL/6 mouse at 10 mg/kg, po; type: ADME, organism-based; set-up: dose 10 mg/kg, route oral; conditions: in vivo
[4] = Tmax in C57BL/6 mouse at 10 mg/kg, po; type: ADME, organism-based; set-up: dose 10 mg/kg, route oral; conditions: in vivo
[5] = AUC in C57BL/6 mouse at 10 mg/kg, po; type: ADME, organism-based; set-up: dose 10 mg/kg, route oral; conditions: plasma
[6] = Oral bioavailability in C57BL/6 mouse at 10 mg/kg; type: ADME, organism-based; conditions: in vivo
Rattus norvegicus [7] = test: as §1; type: ADME, organism-based; conditions: in vivo
Rattus norvegicus [8] = test: as §2; type: ADME, organism-based, Plasma; set-up: dose 10 mg/kg, route oral; conditions: in vivo

Row | SMILES | bioavailability [1] [%] | AUC [2] [µM·h] | Cmax [3] [µM] | Tmax [4] [h] | AUC [5] [µM·h] | bioavailability [6] [%] | F (Rattus norvegicus [7]) [%] | AUC (Rattus norvegicus [8]) [µM·h]
1 | CC#C[C@H]1CN(S(=O)(=O)c2ccc(N)nc2)CCN1c1ccc(S(N)(=O)=O)cc1 | 5 | 0.26 | – | – | – | – | – | –
2 | CC#C[C@H]1CN(S(=O)(=O)c2ccc(N)nc2)CCN1c1ccc(C(O)(C(F)(F)F)C(F)(F)F)cc1 | – | 20 | 5.82 | 5 | 64.8 | – | – | –
3 | CC#C[C@H]1CN(S(=O)(=O)c2ccc(N)nc2)CCN1c1ccc([C@](O)(CO)C(F)(F)F)cc1 | 48 | 7.1 | – | – | – | – | – | –
4 | CC#C[C@H]1CN(S(=O)(=O)c2ccc(N)nc2)CCN1c1ccc([S@](=N)(=O)C(F)(F)F)cc1 | 51 | 25.3 | 46.6 | 1 | 362 | 53 | – | –
5 | CC#C[C@H]1CN(S(=O)(=O)c2ccc(N)nc2)CCN1c1ccc([C@@](C)(O)C(F)(F)F)cn1 | 47 | 28.4 | 9.71 | 0.25 | 37 | 47 | – | –
6 | CC#C[C@H]1CN(S(=O)(=O)c2ccc(N)nc2)CCN1c1ccc(S(=O)(=O)NC)cc1 | – | – | – | – | – | – | 1.5 | 0.03
